System: Caenorhabditis elegans
Experiment: C. elegans L1 nematicidal dose response in 96-well plates, 5 day visual score (Example 2; same procedure for Example 7, Table 3)
Assay type: in vivo
Design: key to 5 Day Visual Score V1 / 5 Day Visual Score V2 / 5 Day Visual Score V3 / 5 Day Visual Score V4 / 5 Day Visual Score V6 / 5 Day Visual Score V5 / Initial HTS Run Visual Score / Follow-up HTS Run Visual Score: Dead: only stiff L1s (no movement); Dead (L4): worms are dead, but at a later larval stage; majority of worms are L1 (based on size) worms move when plate is tapped; majority of worms are L2 (based on size); majority of worms are L3 (based on size); majority of worms are L4 (based on size); AD: majority of worms are adult; #AD: 5 adult worms or less; B!: sterile (0-25 progeny); B: low broodsize (25-100 progeny); ˜B: moderate broodsize (100-250 progeny); <: reduced broodsize (250-500 progeny); OK: no effect (˜1000+ progeny)
Description: Caenorhabditis elegans adults were grown on Nematode Growth Medium (NGM) until they produced eggs, then the adults were removed.
The eggs were allowed to hatch, and the L1 larvae collected. See The Nematode Caenorhabditis elegans (1988) Cold Spring Harbor Laboratory Press. Using a Matrix Programmable Pipette, the L1s were distributed into 96-well tissue culture plates, 20 L1 in 50 μl NGM per well. Antibiotic/Antimyoticwas added to each well, and 1% by weight E. coli strain HB101. The subject anthelmintic compounds were stored at 5 mM in 100% DMSO. 0.7 μl of compounds 1-31 were added to the left-most column of wells to yield a final concentration of 70 μM in 1.4% DMSO, with 1.4% DMSO only as the control. The compounds were then subjected to 5 more 3-fold dilutions from left to right to yield 6 column concentrations of 70 μM, 23.3 μM, 7.8 μM, 2.6 μM, 0.9 μM, and 0.3 μM. Plates were stored in air-tight Rubbermaid plastic boxes at 20° C. The nematodes had cleared all control wells by day 4, and nematode viability was scored by visual examination under a 100× dissecting microsope on day 5. A visual viability scoring system was used as follows:
Column V1 has a compound concentration of 70 μM with sequential 3-fold dilutions reported in columns V2, V3, V4, V5, and V6, respectively, such that the V6 concentration was 0.3 μM.
The nematicidal activity of anthelmintic Compositions 48-168 were determined in accordance with the procedure outlined in Example 2.

[1] = dose response, dilution V1, 5 day
[2] = dose response, dilution V2, 5 day
[3] = dose response, dilution V3, 5 day
[4] = dose response, dilution V4, 5 day
[5] = dose response, dilution V5, 5 day
[6] = dose response, dilution V6, 5 day
[7] = dose response, dilution V1, day 5
[8] = dose response, dilution V3, day 5
[9] = dose response, dilution V4, day 5
[10] = dose response, dilution V5, day 5
[11] = dose response, dilution V6, day 5
[12] = 0.3 μM, C. elegans L1, scored day 5
[13] = 7.8 μM, C. elegans L1, scored day 5
[14] = 23.3 μM, C. elegans L1, scored day 5
[15] = 70 μM, C. elegans L1, scored day 5
[16] = 2.6 μM, C. elegans L1, scored day 5
[17] = dose response, dilution V2, day 5

Structure (SMILES)	Follow-up HTS Run % Run [%]	Follow-up HTS Run Visual Score	Follow-up HTS Run mOD [mOD]	Initial HTS Run % Run [%]	Initial HTS Run Visual Score	Initial HTS Run mOD [mOD]	5 Day Visual Score V1 [7]	5 Day Visual Score V3 [8]	5 Day Visual Score V4 [9]	5 Day Visual Score V5 [10]	5 Day Visual Score V6 [11]	5 Day Visual Score V2 [17]	further results
CCCCN(Cc1ccccc1)c1nc(NC2CCCCCCCCCCC2)ns1 [compound 333]	76	Dead	123	93	Dead	102							5 Day Visual Score V1 [1]: Dead; 5 Day Visual Score V2 [2]: Dead; 5 Day Visual Score V3 [3]: Dead; 5 Day Visual Score V4 [4]: OK (no effect (˜1000+ progeny)); 5 Day Visual Score V5 [5]: OK (no effect (˜1000+ progeny)); 5 Day Visual Score V6 [6]: OK (no effect (˜1000+ progeny))
C=CCN(CC=C)c1nc(NC2CCCCCCCCCCC2)ns1 [compound 334]	88		141	98	Dead	108							5 Day Visual Score V1 [1]: Dead; 5 Day Visual Score V2 [2]: Dead; 5 Day Visual Score V4 [4]: OK (no effect (˜1000+ progeny)); 5 Day Visual Score V5 [5]: OK (no effect (˜1000+ progeny)); 5 Day Visual Score V6 [6]: OK (no effect (˜1000+ progeny))
OCCN(CCO)c1nc(NCc2ccc(C(F)(F)F)cc2)ns1 [compound 254]	113	L2 - Dead L3	182	105	Dead(L3)	116	Dead(L3)	< (reduced broodsize (250-500 progeny))	OK (no effect (˜1000+ progeny))	OK (no effect (˜1000+ progeny))	OK (no effect (˜1000+ progeny))		
Fc1ccc(N2CCN(c3nc(NCCC(c4ccccc4)c4ccccc4)ns3)CC2)cc1 [AKC 134]													5 Day Visual Score V6 [12]: OK (no effect (˜1000+ progeny)); 5 Day Visual Score V3 [13]: Dead; 5 Day Visual Score V2 [14]: Dead; 5 Day Visual Score V1 [15]: Dead
O=C(NCCc1ccccc1F)C1C(c2ccccc2Cl)=NOC1c1ccc(-c2ccccc2)cc1 (centres unmarked) [AKC 110]													5 Day Visual Score V6 [12]: L1; 5 Day Visual Score V5 (0.9 μM, C. elegans L1, scored day 5): L1; 5 Day Visual Score V4 [16]: L1; 5 Day Visual Score V3 [13]: L1; 5 Day Visual Score V2 [14]: L1; 5 Day Visual Score V1 [15]: L1
CCCCCCCCCCNc1nsc(N(CC)C2CCCCC2)n1 [compound 276]	116	Dead	187	116	Dead	128	Dead		OK (no effect (˜1000+ progeny))	OK (no effect (˜1000+ progeny))	OK (no effect (˜1000+ progeny))	Dead	
Cc1cccc(C)c1N1CCN(c2nsc(N3CCN(c4c(C)cccc4C)CC3)n2)CC1 [compound 227]	91	Dead	146	107	Dead	118	Dead	OK (no effect (˜1000+ progeny))	OK (no effect (˜1000+ progeny))	OK (no effect (˜1000+ progeny))	OK (no effect (˜1000+ progeny))	Dead	
COc1ccc(CCN(C)c2nc(NC3CCCCCCCCCCC3)ns2)cc1OC [compound 337]	68	Dead	110	90	Dead	99							5 Day Visual Score V1 [1]: Dead; 5 Day Visual Score V2 [2]: Dead; 5 Day Visual Score V3 [3]: Dead; 5 Day Visual Score V4 [4]: B (low broodsize (25-100 progeny)); 5 Day Visual Score V5 [5]: OK (no effect (˜1000+ progeny)); 5 Day Visual Score V6 [6]: OK (no effect (˜1000+ progeny))
FC(F)(F)c1cccc(N2CCN(c3nc(NCC4CCCCC4)ns3)CC2)c1 [compound 226]	104		167	107		118	L1	OK (no effect (˜1000+ progeny))	OK (no effect (˜1000+ progeny))	OK (no effect (˜1000+ progeny))	OK (no effect (˜1000+ progeny))	˜B (moderate broodsize (100-250 progeny))	
Fc1ccc(N2CCN(c3nc(NCCc4ccc(Oc5ccccc5)cc4)ns3)CC2)cc1 [compound 268]	96	Dead	154	128	Dead	141	Dead		L4#AD/B	OK (no effect (˜1000+ progeny))	B (low broodsize (25-100 progeny))	Dead	
CN(Cc1ccccc1)c1nc(NCc2ccc(F)cc2F)ns1 [compound 295]	128	B! (sterile (0-25 progeny))	206	121	L4/AD/B!-Few Eggs	133		B (low broodsize (25-100 progeny))	OK (no effect (˜1000+ progeny))	OK (no effect (˜1000+ progeny))	OK (no effect (˜1000+ progeny))	B (low broodsize (25-100 progeny))	
CCCCCCCCCCNc1nsc(N2CCN(c3c(C)cccc3C)CC2)n1 [compound 275]	105	Dead	169	95	Dead	105	Dead	OK (no effect (˜1000+ progeny))	OK (no effect (˜1000+ progeny))	OK (no effect (˜1000+ progeny))	OK (no effect (˜1000+ progeny))	Dead	
COc1ccc(C2=NOC(c3ccc(-c4ccccc4)cc3)C2C(=O)NCCc2ccccc2F)cc1 (centres unmarked) [AKC 121]													5 Day Visual Score V4 [16]: #AD/˜B; 5 Day Visual Score V2 [14]: L1; 5 Day Visual Score V1 [15]: L1
Cc1cccc(C)c1N1CCN(c2nsc(N(C)CCc3ccccc3)n2)CC1 [compound 234]	63	2AD/B	102	120	3AD/B	132	Dead	˜B (moderate broodsize (100-250 progeny))	< (reduced broodsize (250-500 progeny))	OK (no effect (˜1000+ progeny))	OK (no effect (˜1000+ progeny))		
CCN(c1nc(N2CCN(c3c(C)cccc3C)CC2)ns1)C1CCCCC1 [compound 228]	73	Dead/1L4/1AD	118	107	1AD/B!	118	Dead	OK (no effect (˜1000+ progeny))	OK (no effect (˜1000+ progeny))	OK (no effect (˜1000+ progeny))	OK (no effect (˜1000+ progeny))	Dead	
O=C(Nc1ccc(OC(F)(F)F)cc1)NC1CCC(c2nc(-c3ccccc3)no2)CC1 (centres unmarked) [AKC 107]													5 Day Visual Score V6 [12]: L2/Dead(L; 5 Day Visual Score V4 [16]: Dead(L4); 5 Day Visual Score V2 [14]: Dead(L2/L3); 5 Day Visual Score V1 [15]: Dead

From US20020002171A1, “Materials and methods for killing nematodes and nematode eggs” (priority 2000, published 2002)
